According to PubChem BioAssay AID256 (DTP/NCI, 2004):
Where “and” joins values, the source holds several entries; their conditions need not be identical. Equal entries are not always repeated. Inconclusive results and toxic doses are left out. The calls were made as follows: active = survival T/C of 150% or more; inactive = T/C below 125% in these data.

Tested on: CD2F1 mice, L1210 leukemia ip, survival T/C
Experiment: NCI In Vivo Anticancer Drug Screen. Data for tumor model L1210 Leukemia (intraperitoneal) in CD2F1 (CDF1) mice
Details: higher = longer survival
Outline: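 Ratio T/C, where T is the treated-group value and C the vehicle-dosed control value, from mice implanted with a transplantable tumor.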

[1] = endpoint: mean survival time, dose: 100.0 mg/kg/injection, schedule: Q01DX001 (ip), vehicle: saline with Tween-80
[2] = endpoint: mean survival time, dose: 100.0 mg/kg/injection, schedule: Q01DX009 (ip), vehicle: saline with Tween-80
[3] = endpoint: mean survival time, dose: 200.0 mg/kg/injection, schedule: Q01DX001 (ip), vehicle: saline with Tween-80
[4] = endpoint: mean survival time, dose: 100.0 mg/kg/injection, schedule: Q04DX003 (ip), vehicle: saline with Tween-80
[5] = endpoint: mean survival time, dose: 200.0 mg/kg/injection, schedule: Q04DX003 (ip), vehicle: saline with Tween-80
[6] = endpoint: mean survival time, dose: 400.0 mg/kg/injection, schedule: Q04DX003 (ip), vehicle: saline with Tween-80
[7] = endpoint: mean survival time, dose: 75.0 mg/kg/injection, schedule: Q01DX001 (ip), vehicle: saline
[8] = endpoint: mean survival time, dose: 150.0 mg/kg/injection, schedule: Q01DX001 (ip), vehicle: saline
[9] = endpoint: mean survival time, dose: 25.0 mg/kg/injection, schedule: Q04DX003 (ip), vehicle: saline with Tween-80
[10] = endpoint: mean survival time, dose: 50.0 mg/kg/injection, schedule: Q04DX003 (ip), vehicle: saline with Tween-80
[11] = endpoint: mean survival time, dose: 100.0 mg/kg/injection, schedule: Q01DX001 (ip), vehicle: saline
[12] = endpoint: mean survival time, dose: 200.0 mg/kg/injection, schedule: Q01DX001 (ip), vehicle: saline
[13] = endpoint: mean survival time, dose: 400.0 mg/kg/injection, schedule: Q01DX001 (ip), vehicle: saline
[14] = endpoint: mean survival time, dose: 50.0 mg/kg/injection, schedule: Q01DX009 (ip), vehicle: other
[15] = endpoint: mean survival time, dose: 100.0 mg/kg/injection, schedule: Q01DX009 (ip), vehicle: other
[16] = endpoint: mean survival time, dose: 200.0 mg/kg/injection, schedule: Q01DX009 (ip), vehicle: other
[17] = endpoint: mean survival time, dose: 400.0 mg/kg/injection, schedule: Q01DX001 (ip), vehicle: saline with Tween-80
[18] = endpoint: mean survival time, dose: 100.0 mg/kg/injection, schedule: Q04DX002 (ip), vehicle: saline with Tween-80

Measured: T/C

O=[As](O)(c1ccccc1)C1CCCCC1O (stereo not drawn)
inactive: endpoint: mean survival time, dose: 25.0 mg/kg/injection, schedule: Q01DX001 (ip), vehicle: saline with Tween-80 98 % of control

CCOC(=O)Nc1cc(NCCc2ccccc2)c2[nH]cnc2n1
inactive: endpoint: mean survival time, dose: 100.0 mg/kg/injection, schedule: Q01DX001 (ip), vehicle: Klucel (hydroxypropylcellulose) (HPC) 90 % of control | endpoint: mean survival time, dose: 200.0 mg/kg/injection, schedule: Q01DX001 (ip), vehicle: Klucel (hydroxypropylcellulose) (HPC) 87 % of control | endpoint: mean survival time, dose: 400.0 mg/kg/injection, schedule: Q01DX001 (ip), vehicle: Klucel (hydroxypropylcellulose) (HPC) 95 % of control

CC1(C)CC(=O)C=C(N2CCC(CCCC3CCN(C4=CC(=O)CC(C)(C)C4)CC3)CC2)C1
inactive: endpoint: mean survival time, dose: 50.0 mg/kg/injection, schedule: Q01DX009 (ip), vehicle: saline with Tween-80 102 % of control | [1] 100 % of control | [2] 95 % of control | [3] 93 % of control

S=c1[nH]n(-c2ccccc2)c(=S)s1
inactive: endpoint: mean survival time, dose: 75.0 mg/kg/injection, schedule: Q04DX003 (ip), vehicle: saline 100 % of control

CCC1CC2CN(CCc3c([nH]c4ccccc34)C(C(=O)OC)(c3cc4c(cc3OC)N(C)C3C(O)(C(=O)OC)C(OC(C)=O)C5(CC)C=CCN6CCC43C65)C2)C1 (stereo not drawn)
inactive: endpoint: median survival time, dose: 0.06 mg/kg/injection, schedule: Q01DX009 (ip), vehicle: saline 102 % of control | endpoint: median survival time, dose: 0.13 mg/kg/injection, schedule: Q01DX009 (ip), vehicle: saline 103 % of control | endpoint: median survival time, dose: 0.25 mg/kg/injection, schedule: Q01DX009 (ip), vehicle: saline 105 % of control | endpoint: median survival time, dose: 0.5 mg/kg/injection, schedule: Q01DX009 (ip), vehicle: saline 116 % of control | endpoint: median survival time, dose: 0.5 mg/kg/injection, schedule: Q01DX009 (ip), vehicle: water 113 % of control | endpoint: median survival time, dose: 1.0 mg/kg/injection, schedule: Q01DX009 (ip), vehicle: saline 120 % of control | endpoint: median survival time, dose: 1.0 mg/kg/injection, schedule: Q01DX009 (ip), vehicle: water 116 % of control | endpoint: median survival time, dose: 2.0 mg/kg/injection, schedule: Q01DX009 (ip), vehicle: water 104 % of control

C=CCNc1n[nH]c(=S)s1
inactive: [4] 100 % of control | [5] 96 % of control | [6] 105 % of control

COc1cc2nncc(Sc3cnnc4ccccc34)c2cc1OC
inactive: endpoint: mean survival time, dose: 100.0 mg/kg/injection, schedule: Q01DX001 (ip), vehicle: other 92 % of control | endpoint: mean survival time, dose: 200.0 mg/kg/injection, schedule: Q01DX001 (ip), vehicle: other 86 % of control | endpoint: mean survival time, dose: 400.0 mg/kg/injection, schedule: Q01DX001 (ip), vehicle: other 92 % of control

COC12[C@@H](COC(N)=O)C3=C(C(=O)C(C)=C(NCCSSCCNC4=C(C)C(=O)C5=C(C4=O)C(COC(N)=O)[C@]4(OC)C6[C@@H](CN54)N6C)C3=O)N1C[C@@H]1[C@H]2N1C (stereo partly drawn)
inactive: endpoint: mean survival time, dose: 6.0 mg/kg/injection, schedule: Q01DX001 (ip), vehicle: distilled water + Tween-80 114 % of control

COc1cc2c(cc1O)NC(OC)C1CC(O)CN1C2=O (stereo not drawn)
inactive: endpoint: median survival time, dose: 0.02 mg/kg/injection, schedule: Q01DX005 (ip), vehicle: DMSO 101 % of control | endpoint: median survival time, dose: 0.4 mg/kg/injection, schedule: Q01DX005 (ip), vehicle: DMSO 102 % of control | endpoint: median survival time, dose: 0.8 mg/kg/injection, schedule: Q01DX005 (ip), vehicle: DMSO 100 % of control | endpoint: median survival time, dose: 1.6 mg/kg/injection, schedule: Q01DX005 (ip), vehicle: DMSO 102 % of control | endpoint: median survival time, dose: 3.2 mg/kg/injection, schedule: Q01DX005 (ip), vehicle: DMSO 111 % of control | endpoint: median survival time, dose: 6.4 mg/kg/injection, schedule: Q01DX005 (ip), vehicle: DMSO 115 % of control

CN1CC(O)(C(O)C(O)C(O)CO)SC1=S (stereo not drawn)
inactive: endpoint: mean survival time, dose: 100.0 mg/kg/injection, schedule: Q01DX009 (ip), vehicle: saline sonified 98 % of control | [4] 100 % of control | endpoint: mean survival time, dose: 200.0 mg/kg/injection, schedule: Q01DX009 (ip), vehicle: saline sonified 101 % of control | [5] 93 % of control | endpoint: mean survival time, dose: 400.0 mg/kg/injection, schedule: Q01DX009 (ip), vehicle: saline sonified 109 % of control | [6] 89 % of control

CCOC(=O)/N=c1\ccccn1O
inactive: [7] 101 % of control | [8] 101 % of control | endpoint: mean survival time, dose: 300.0 mg/kg/injection, schedule: Q01DX001 (ip), vehicle: saline 105 % of control

COCCCN=C(N)N
inactive: endpoint: mean survival time, dose: 50.0 mg/kg/injection, schedule: Q01DX009 (ip), vehicle: saline 102 % of control | endpoint: mean survival time, dose: 100.0 mg/kg/injection, schedule: Q01DX009 (ip), vehicle: saline 105 % of control | endpoint: mean survival time, dose: 200.0 mg/kg/injection, schedule: Q01DX009 (ip), vehicle: saline 96 % of control

O=C(Nc1ccccc1C(=O)O)c1ccccc1
inactive: [9] 106 % of control | [10] 101 % of control | [4] 98 % of control and 101 % of control

CCCCCCCCOC(=O)Nc1ccc(S(=O)(=O)N(CCC)CCC)cc1
inactive: [11] 96 % of control | [12] 92 % of control | [13] 88 % of control

CCOC(=O)C1C(=O)N(c2ccccc2)C(=O)N1Cc1ccccc1 (stereo not drawn)
inactive: endpoint: mean survival time, dose: 12.5 mg/kg/injection, schedule: Q01DX009 (ip), vehicle: other 98 % of control | endpoint: mean survival time, dose: 25.0 mg/kg/injection, schedule: Q01DX009 (ip), vehicle: other 98 % of control | [14] 97 % of control | [15] 95 % of control | [16] 86 % of control

COc1cc(NC(N)=O)ccc1Nc1c2ccc(N)cc2nc2cc(N)ccc12
inactive: endpoint: mean survival time, dose: 0.5 mg/kg/injection, schedule: Q01DX009 (ip), vehicle: saline 100 % of control | endpoint: mean survival time, dose: 1.0 mg/kg/injection, schedule: Q01DX009 (ip), vehicle: saline 98 % of control | endpoint: mean survival time, dose: 2.0 mg/kg/injection, schedule: Q01DX009 (ip), vehicle: saline 102 % of control | endpoint: mean survival time, dose: 4.0 mg/kg/injection, schedule: Q01DX009 (ip), vehicle: saline 102 % of control | endpoint: mean survival time, dose: 8.0 mg/kg/injection, schedule: Q01DX009 (ip), vehicle: saline 103 % of control | endpoint: mean survival time, dose: 16.0 mg/kg/injection, schedule: Q01DX009 (ip), vehicle: saline 111 % of control

[Cl][Pt][Cl].c1ccc([AsH](CC[AsH](c2ccccc2)c2ccccc2)c2ccccc2)cc1
inactive: [9] 94 % of control | [10] 88 % of control | [4] 96 % of control

CC(C)CCCC(C)C1CCC2C3C(=O)C4=CC(=O)CCC4(C)C3CCC12C (stereo not drawn)
inactive: [1] 94 % of control | [3] 96 % of control | [17] 90 % of control

CCN(CC)CCC(O)c1ccc2c3ccccc3n(C)c2c1 (stereo not drawn)
inactive: [18] 109 % of control

CC(C)C1C(O)C23CCC4C(C)(CO)CCCC4(C)C2CC13 (stereo not drawn)
inactive: [1] 96 % of control | [3] 94 % of control | [17] 94 % of control

O=[N+]([O-])c1ccc(Sc2ccc([N+](=O)[O-])cc2)cc1
inactive: [4] 88 % of control | [5] 92 % of control

CC(O)C(=O)Oc1ccccc1 (stereo not drawn)
inactive: [14] 92 % of control | [15] 100 % of control | [16] 102 % of control

O=C(Nc1ccc(Cl)c(C(F)(F)F)c1)Nc1cc(Cl)ccc1Sc1cc(Cl)c(Cl)cc1S(=O)(=O)O
inactive: endpoint: mean survival time, dose: 100.0 mg/kg/injection, schedule: Q01DX001 (ip), vehicle: saline sonified 102 % of control | [2] 100 % of control | endpoint: mean survival time, dose: 200.0 mg/kg/injection, schedule: Q01DX001 (ip), vehicle: saline sonified 93 % of control | endpoint: mean survival time, dose: 200.0 mg/kg/injection, schedule: Q01DX009 (ip), vehicle: saline with Tween-80 105 % of control | endpoint: mean survival time, dose: 400.0 mg/kg/injection, schedule: Q01DX001 (ip), vehicle: saline sonified 93 % of control | endpoint: mean survival time, dose: 400.0 mg/kg/injection, schedule: Q01DX009 (ip), vehicle: saline with Tween-80 102 % of control

Cc1cccc(NC(=O)COc2c(C)cc(Cl)cc2Cl)c1
inactive: [18] 98 % of control | endpoint: mean survival time, dose: 200.0 mg/kg/injection, schedule: Q04DX002 (ip), vehicle: saline with Tween-80 94 % of control | endpoint: mean survival time, dose: 400.0 mg/kg/injection, schedule: Q04DX002 (ip), vehicle: saline with Tween-80 90 % of control

OCC1OC(n2cc(I)c3c(Cl)ncnc32)C(O)C1O (stereo not drawn)
inactive: [11] 98 % of control | [12] 110 % of control | [13] 110 % of control

CN(C)N=C1CCCCCC1
inactive: [7] 102 % of control | [8] 98 % of control
